{"source": "patent US7138361B2", "about": "“Herbicidal heterocycles” (E. I. du Pont de Nemours and Company, priority 2000, dated 2006)", "format_in_all_cases": "in vivo", "key": {"Nightshade [1]": {"system": "Nightshade", "test": "Test C preemergence", "conditions": "Rate 500 g/ha, visual evaluation after 12 to 14 days"}, "[2]": {"system": "smallflower flatsedge (Cyperus difformis)", "test": "Test C flooded paddy test", "conditions": "for Plant response rating, Flatsedge: scale 0 to 100 (0 no effect, 100 complete control)", "summary_of_the_method": "(§1)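 Each species was cultivated to 2 leaves in flooded paddy pots, then treated. After a greenhouse period of 12–14 days, the plants were scored visually relative to controls from 0 (no effect) to 100 (complete control).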"}, "[3]": {"system": "duck salad (Heteranthera limosa)", "test": "Test C flooded paddy test", "conditions": "for Plant response rating, Ducksalad: scale 0 to 100 (0 no effect, 100 complete control)", "summary_of_the_method": "as §1"}, "rice (Oryza saliva)": {"system": "rice (Oryza saliva)", "test": "Test C flooded paddy test", "conditions": "for Plant response rating, Rice: scale 0 to 100 (0 no effect, 100 complete control)", "summary_of_the_method": "as §1"}, "[4]": {"system": "goosegrass (Eleusine indica)", "test": "Test C preemergence", "summary_of_the_method": "(§2)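 Formulation: non-phytotoxic solvent mix incl. surfactant. Pre: applied right after planting. Post: 1–4-leaf seedlings. Read: visual 0–100, day 12–14, greenhouse.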"}, "[5]": {"system": "woolly cupgrass (Eriochloa villosa)", "test": "Test C preemergence", "summary_of_the_method": "as §2"}, "Nightshade [6]": {"system": "Nightshade", "test": "Test C preemergence"}, "[7]": {"system": "morningglory (Ipomoea hederacea)", "test": "Test C preemergence", "summary_of_the_method": "as §2"}, "[8]": {"system": "crabgrass (Digitaria sanguinalis)", "test": "Test C preemergence", "summary_of_the_method": "as §2"}, "[9]": {"system": "lambsquarters (Chenopodium album)", "test": "Test C preemergence", "summary_of_the_method": "as §2"}, "[10]": {"system": "yellow nutsedge (Cyperus esculentus)", "test": "Test C preemergence", "summary_of_the_method": "as §2"}, "[11]": {"system": "velvetleaf (Abutilon theophrasti)", "test": "Test C preemergence", "summary_of_the_method": "as §2"}, "[12]": {"system": "johnsongrass (Sorghum halepense)", "test": "Test C preemergence", "summary_of_the_method": "as §2"}, "[13]": {"system": "common ragweed (Ambrosia elatior)", "test": "Test C preemergence", "summary_of_the_method": "as §2"}, "kochia (Kochia scoparia)": {"system": "kochia (Kochia scoparia)", "test": "Test C preemergence", "summary_of_the_method": "as §2"}, "[14]": {"system": "cocklebur (Xanthium strumarium)", "test": "Test C preemergence", "summary_of_the_method": "as §2"}, "[15]": {"system": "bermudagrass (Cynodon dactylon)", "test": "Test C preemergence", "summary_of_the_method": "as §2"}, "[16]": {"system": "Surinam grass (Brachiaria decumbens)", "test": "Test C preemergence", "summary_of_the_method": "as §2"}, "Sunflower": {"system": "Sunflower", "test": "Test C preemergence", "conditions": "Rate 125 g/ha; scale 0 to 100, 0 no effect, 100 complete control"}, "[17]": {"system": "giant foxtail (Setaria faberii)", "test": "Test C preemergence", "summary_of_the_method": "as §2"}, "soybean (Glycine max)": {"system": "soybean (Glycine max)", "test": "Test C preemergence", "summary_of_the_method": "as §2"}, "[18]": {"system": "pigweed (Amaranthus retroflexus)", "test": "Test C preemergence", "summary_of_the_method": "as §2"}, "corn (Zea mays)": {"system": "corn (Zea mays)", "test": "Test C preemergence", "summary_of_the_method": "as §2"}, "[19]": {"conditions": "Flooded Paddy, Rate 500 g/ha, scale 0 to 100, 0 no effect, 100 complete control"}, "[20]": {"conditions": "flooded paddy test, Rate 125 g/ha"}, "[21]": {"conditions": "flooded paddy test, Rate 250 g/ha"}, "[22]": {"conditions": "flooded paddy test, Rate 62 g/ha, visually evaluated after 12 to 14 days, 0 = no effect, 100 = complete control"}, "[23]": {"conditions": "Rate 125 g/ha, scale 0 to 100, 0 no effect, 100 complete control"}, "[24]": {"conditions": "preemergence, Rate 62 g/ha, scale 0 to 100"}, "[25]": {"conditions": "preemergence, Rate 500 g/ha, visual evaluation after 12 to 14 days"}, "[26]": {"conditions": "preemergence, Rate 250 g/ha, scale 0 to 100, 0 no effect, 100 complete control"}}, "data": [{"smiles": "CCC(C)c1ccn(C2CCN(c3ccc(Br)c(OC)c3)C2=O)n1", "note": "(stereo not shown) [Compound 142]", "values": [{"measurement": "Plant response rating (0 to 100), Nightshade", "setting": "Nightshade [1]", "value": 100}, {"measurement": "Flatsedge plant response rating", "setting": "[2]; [19]", "value": 95}, {"measurement": "Plant response rating, Flatsedge", "setting": "[2]; [20]", "value": 95}, {"measurement": "Plant response rating, Flatsedge", "setting": "[2]; [21]", "value": 95}, {"measurement": "Plant response rating (scale 0 to 100), Flatsedge", "setting": "[2]; [22]", "value": 95}, {"measurement": "Ducksalad plant response rating", "setting": "[3]; [19]", "value": 100}, {"measurement": "Plant response rating, Ducksalad", "setting": "[3]; [20]", "value": 90}, {"measurement": "Plant response rating, Ducksalad", "setting": "[3]; [21]", "value": 100}, {"measurement": "Plant response rating (scale 0 to 100), Ducksalad", "setting": "[3]; [22]", "value": 30}, {"measurement": "Rice plant response rating", "setting": "rice (Oryza saliva); [19]", "value": 55}, {"measurement": "Plant response rating, Rice", "setting": "rice (Oryza saliva); [20]", "value": 25}, {"measurement": "Plant response rating, Rice", "setting": "rice (Oryza saliva); [21]", "value": 45}, {"measurement": "Plant response rating (scale 0 to 100), Rice", "setting": "rice (Oryza saliva); [22]", "value": 0}, {"measurement": "Plant response rating, Goosegrass", "setting": "[4]; [23]", "value": 100}, {"measurement": "Plant response rating, Goosegrass", "setting": "[4]; [24]", "value": 100}, {"measurement": "Plant response rating (0 to 100), Goosegrass", "setting": "[4]; [25]", "value": 100}, {"measurement": "Plant response rating, Goosegrass", "setting": "[4]; [26]", "value": 100}, {"measurement": "Plant response rating, Cupgrass, Woolly", "setting": "[5]; [23]", "value": 100}, {"measurement": "Plant response rating, Cupgrass, Woolly", "setting": "[5]; [24]", "value": 90}, {"measurement": "Plant response rating (0 to 100), Cupgrass, Woolly", "setting": "[5]; [25]", "value": 100}, {"measurement": "Plant response rating, Cupgrass, Woolly", "setting": "[5]; [26]", "value": 100}, {"measurement": "Plant response rating, Nightshade", "setting": "Nightshade [6]; Rate 62 g/ha, scale 0 to 100", "value": 90}, {"measurement": "Plant response rating, Nightshade", "setting": "Nightshade [6]; [23]", "value": 100}, {"measurement": "Plant response rating, Nightshade", "setting": "Nightshade [6]; Rate 250 g/ha, scale 0 to 100, 0 no effect, 100 complete control", "value": 100}, {"measurement": "Plant response rating, Morningglory", "setting": "[7]; [23]", "value": 100}, {"measurement": "Plant response rating, Morningglory", "setting": "[7]; [24]", "value": 90}, {"measurement": "Plant response rating (0 to 100), Morningglory", "setting": "[7]; [25]", "value": 100}, {"measurement": "Plant response rating, Morningglory", "setting": "[7]; [26]", "value": 100}, {"measurement": "Plant response rating, Crabgrass", "setting": "[8]; [23]", "value": 100}, {"measurement": "Plant response rating, Crabgrass", "setting": "[8]; [24]", "value": 100}, {"measurement": "Plant response rating (0 to 100), Crabgrass", "setting": "[8]; [25]", "value": 100}, {"measurement": "Plant response rating, Crabgrass", "setting": "[8]; [26]", "value": 100}, {"measurement": "Plant response rating, Lambsquarters", "setting": "[9]; [23]", "value": 100}, {"measurement": "Plant response rating, Lambsquarters", "setting": "[9]; [24]", "value": 100}, {"measurement": "Plant response rating (0 to 100), Lambsquarters", "setting": "[9]; [25]", "value": 100}, {"measurement": "Plant response rating, Lambsquarters", "setting": "[9]; [26]", "value": 100}, {"measurement": "Plant response rating, Nutsedge", "setting": "[10]; [23]", "value": 0}, {"measurement": "Plant response rating, Nutsedge", "setting": "[10]; [24]", "value": 0}, {"measurement": "Plant response rating (0 to 100), Nutsedge", "setting": "[10]; [25]", "value": 20}, {"measurement": "Plant response rating, Nutsedge", "setting": "[10]; [26]", "value": 0}, {"measurement": "Plant response rating, Velvetleaf", "setting": "[11]; [23]", "value": 90}, {"measurement": "Plant response rating, Velvetleaf", "setting": "[11]; [24]", "value": 10}, {"measurement": "Plant response rating (0 to 100), Velvetleaf", "setting": "[11]; [25]", "value": 100}, {"measurement": "Plant response rating, Velvetleaf", "setting": "[11]; [26]", "value": 100}, {"measurement": "Plant response rating, Johnsongrass", "setting": "[12]; [23]", "value": 0}, {"measurement": "Plant response rating, Johnsongrass", "setting": "[12]; [24]", "value": 0}, {"measurement": "Plant response rating (0 to 100), Johnsongrass", "setting": "[12]; [25]", "value": 100}, {"measurement": "Plant response rating, Johnsongrass", "setting": "[12]; [26]", "value": 100}, {"measurement": "Plant response rating, Ragweed, Common", "setting": "[13]; [23]", "value": 100}, {"measurement": "Plant response rating, Ragweed, Common", "setting": "[13]; [24]", "value": 0}, {"measurement": "Plant response rating (0 to 100), Ragweed, Common", "setting": "[13]; [25]", "value": 100}, {"measurement": "Plant response rating, Ragweed, Common", "setting": "[13]; [26]", "value": 100}, {"measurement": "Plant response rating, Kochia", "setting": "kochia (Kochia scoparia); [23]", "value": 100}, {"measurement": "Plant response rating, Kochia", "setting": "kochia (Kochia scoparia); [24]", "value": 100}, {"measurement": "Plant response rating (0 to 100), Kochia", "setting": "kochia (Kochia scoparia); [25]", "value": 100}, {"measurement": "Plant response rating, Kochia", "setting": "kochia (Kochia scoparia); [26]", "value": 100}, {"measurement": "Plant response rating, Cocklebur", "setting": "[14]; [23]", "value": 30}, {"measurement": "Plant response rating, Cocklebur", "setting": "[14]; [24]", "value": 0}, {"measurement": "Plant response rating (0 to 100), Cocklebur", "setting": "[14]; [25]", "value": 60}, {"measurement": "Plant response rating, Cocklebur", "setting": "[14]; [26]", "value": 30}, {"measurement": "Plant response rating, Bermudagrass", "setting": "[15]; [23]", "value": 100}, {"measurement": "Plant response rating, Bermudagrass", "setting": "[15]; [24]", "value": 100}, {"measurement": "Plant response rating (0 to 100 where 0 is no effect and 100 is complete control), Bermudagrass", "setting": "[15]; [25]", "value": 100}, {"measurement": "Plant response rating, Bermudagrass", "setting": "[15]; [26]", "value": 100}, {"measurement": "Plant response rating, Surinam grass", "setting": "[16]; [23]", "value": 0}, {"measurement": "Plant response rating, Surinam grass", "setting": "[16]; [24]", "value": 0}, {"measurement": "Plant response rating (0 to 100), Surinam grass", "setting": "[16]; [25]", "value": 100}, {"measurement": "Plant response rating, Surinam grass", "setting": "[16]; [26]", "value": 50}, {"measurement": "Plant response rating, Sunflower", "setting": "Sunflower", "value": 20}, {"measurement": "Plant response rating, Foxtail, Giant", "setting": "[17]; [23]", "value": 100}, {"measurement": "Plant response rating, Foxtail, Giant", "setting": "[17]; [24]", "value": 100}, {"measurement": "Plant response rating (0 to 100), Foxtail, Giant", "setting": "[17]; [25]", "value": 100}, {"measurement": "Plant response rating, Foxtail, Giant", "setting": "[17]; [26]", "value": 100}, {"measurement": "Plant response rating, Soybean", "setting": "soybean (Glycine max); [23]", "value": 70}, {"measurement": "Plant response rating, Soybean", "setting": "soybean (Glycine max); [24]", "value": 30}, {"measurement": "Plant response rating (0 to 100), Soybean", "setting": "soybean (Glycine max); [25]", "value": 100}, {"measurement": "Plant response rating, Soybean", "setting": "soybean (Glycine max); [26]", "value": 100}, {"measurement": "Plant response rating, Pigweed", "setting": "[18]; [23]", "value": 100}, {"measurement": "Plant response rating, Pigweed", "setting": "[18]; [24]", "value": 100}, {"measurement": "Plant response rating (0 to 100), Pigweed", "setting": "[18]; [25]", "value": 100}, {"measurement": "Plant response rating, Pigweed", "setting": "[18]; [26]", "value": 100}, {"measurement": "Plant response rating, Corn", "setting": "corn (Zea mays); [23]", "value": 0}, {"measurement": "Plant response rating, Corn", "setting": "corn (Zea mays); [24]", "value": 0}, {"measurement": "Plant response rating (0 to 100), Corn", "setting": "corn (Zea mays); [25]", "value": 10}, {"measurement": "Plant response rating, Corn", "setting": "corn (Zea mays); [26]", "value": 0}]}]}
